Test results reported in PubChem BioAssay AID298 (DTP/NCI, 2004).
Values joined by “and” are separate entries in the source; they are usually repeats but may differ in a detail not shown here. Equal entries are not always repeated. Results filed as inconclusive are left out. *1 amine or outer side, *2 acyl side, *3 side chain or, on linkers, in order; H or OH if unused. Where a SMILES comes first, the peptide text is derived from it. Bridges are numbered along the chain shown (N, C = ends). Roman numbers before positions name the chains, in order. [ ]: non-standard residue; d: D form. Actinocin(9to1) = Cc1c2oc3c(C)ccc(C(=O)[*:1])c3nc-2c(C(=O)[*:2])c(N)c1=O; aThr = C[C@H](O)[C@H](N)C(=O)O; NMeV = CN[C@H](C(=O)O)C(C)C; Sar = CNCC(=O)O

Test system: MX-1 breast xenograft, intrarenal, nude mice, tumor weight
Assay: NCI In Vivo Anticancer Drug Screen. Data for tumor model Human Mammary Carcinoma MX-1 Xenograft (intrarenal inoculation) in NU/NU BALB/C (nude) mice
Settings: endpoint: mean tumor weight change, higher = larger tumour
Summary of the method: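 Compounds were given to mice carrying transplanted tumors, and tumor size or survival was measured. Each value is the treated-group measurement (T) divided by the vehicle-treated control-group measurement (C).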

[1] = dose: 25.0 mg/kg/injection, schedule: Q01DX010 (sc), vehicle: water
[2] = dose: 100.0 mg/kg/injection, schedule: Q01DX010 (sc), vehicle: water
[3] = dose: 150.0 mg/kg/injection, schedule: Q04DX003 (ip), vehicle: Klucel (hydroxypropylcellulose) (HPC)

O=NN(CCCl)C(=O)NC1CCCCC1
T/C (dose: 4.0 mg/kg/injection, schedule: Q01DX010 (ip), vehicle: saline with Tween-80): 303 % of control | T/C (dose: 8.0 mg/kg/injection, schedule: Q01DX010 (ip), vehicle: saline with Tween-80): 248 % of control | T/C (dose: 8.0 mg/kg/injection, schedule: Q01DX010 (sc), vehicle: saline with Tween-80): 71 % of control | T/C (dose: 12.5 mg/kg/injection, schedule: Q04DX003 (sc), vehicle: Klucel (hydroxypropylcellulose) (HPC)): 66 % of control | T/C (dose: 13.33 mg/kg/injection, schedule: Q04DX003 (ip), vehicle: saline with Tween-80): 105 % of control | T/C (dose: 16.0 mg/kg/injection, schedule: Q01DX010 (ip), vehicle: saline with Tween-80): 263 % of control | T/C (dose: 16.0 mg/kg/injection, schedule: Q01DX010 (sc), vehicle: saline with Tween-80): 61 % of control | T/C (dose: 25.0 mg/kg/injection, schedule: Q04DX003 (sc), vehicle: Klucel (hydroxypropylcellulose) (HPC)): 67 % of control | T/C (dose: 26.65 mg/kg/injection, schedule: Q04DX003 (ip), vehicle: saline with Tween-80): 36 % of control | T/C (dose: 26.66 mg/kg/injection, schedule: Q04DX003 (sc), vehicle: saline with Tween-80): 64 % of control | T/C (dose: 32.0 mg/kg/injection, schedule: Q01DX010 (ip), vehicle: saline with Tween-80): 8 % of control | T/C (dose: 32.0 mg/kg/injection, schedule: Q01DX010 (sc), vehicle: saline with Tween-80): 3 % of control | T/C (dose: 50.0 mg/kg/injection, schedule: Q04DX003 (sc), vehicle: Klucel (hydroxypropylcellulose) (HPC)): 31 % of control | T/C (dose: 53.3 mg/kg/injection, schedule: Q04DX003 (ip), vehicle: saline with Tween-80): 42 % of control | T/C (dose: 53.33 mg/kg/injection, schedule: Q04DX003 (sc), vehicle: saline with Tween-80): 31 % of control

CC(/C=N/N=C(N)N)=N\N=C(N)N
T/C [1]: 167 % of control | T/C (dose: 50.0 mg/kg/injection, schedule: Q01DX010 (sc), vehicle: water): 73 % of control | T/C [2]: 43 % of control

Nc1c(/C=C/c2cc3cc(C4=NCCN4)ccc3o2)[nH]c2cc(C3=NCCN3)ccc12
T/C (dose: 37.5 mg/kg/injection, schedule: Q04DX003 (ip), vehicle: Klucel (hydroxypropylcellulose) (HPC)): 80 % of control | T/C (dose: 75.0 mg/kg/injection, schedule: Q04DX003 (ip), vehicle: Klucel (hydroxypropylcellulose) (HPC)): 103 % of control | T/C [3]: 40 % of control

CO[C@H]1Nc2c(ccc(C)c2O)C(=O)N2C=C(/C=C/C(N)=O)C[C@@H]12
T/C (dose: 0.25 mg/kg/injection, schedule: Q04DX003 (sc), vehicle: saline + alcohol): 41 % of control | T/C (dose: 0.5 mg/kg/injection, schedule: Q04DX003 (sc), vehicle: saline + alcohol): 12 % of control | T/C (dose: 1.0 mg/kg/injection, schedule: Q04DX003 (sc), vehicle: saline + alcohol): -58 % of control | T/C (dose: 2.0 mg/kg/injection, schedule: Q04DX003 (sc), vehicle: saline + alcohol): -98 % of control

CCOC(=O)[C@]1(Br)CC[C@@]1(Br)C(=O)OCC
T/C (dose: 300.0 mg/kg/injection, schedule: Q04DX003 (sc), vehicle: saline with Tween-80): 99 % of control | T/C (dose: 600.0 mg/kg/injection, schedule: Q04DX003 (sc), vehicle: saline with Tween-80): 96 % of control | T/C (dose: 1200.0 mg/kg/injection, schedule: Q04DX003 (sc), vehicle: saline with Tween-80): 94 % of control

Nc1n[nH]c2ccccc12
T/C (dose: 300.0 mg/kg/injection, schedule: Q04DX003 (ip), vehicle: other): 93 % of control | T/C (dose: 600.0 mg/kg/injection, schedule: Q04DX003 (ip), vehicle: other): 108 % of control

Cc1ccc(S(=O)(=O)NC(=O)OC23COCN2COC3)cc1
T/C (dose: 200.0 mg/kg/injection, schedule: Q04DX003 (sc), vehicle: saline with Tween-80): 123 % of control | T/C (dose: 800.0 mg/kg/injection, schedule: Q04DX003 (sc), vehicle: saline with Tween-80): 102 % of control | T/C (dose: 1600.0 mg/kg/injection, schedule: Q04DX003 (sc), vehicle: saline with Tween-80): 107 % of control

C=CCNC(=O)c1ccccc1SC(C)=O
T/C (dose: 150.0 mg/kg/injection, schedule: Q04DX003 (ip), vehicle: saline with Tween-80): 93 % of control | T/C (dose: 300.0 mg/kg/injection, schedule: Q04DX003 (ip), vehicle: saline with Tween-80): 99 % of control

Cc1c(-c2ccc(-c3ccccc3F)cc2)nc2ccc(F)cc2c1C(=O)O
T/C (dose: 6.9 mg/kg/injection, schedule: Q01DX009 (ip), vehicle: water): 15 % of control and 19 % of control | T/C (dose: 11.5 mg/kg/injection, schedule: Q01DX009 (ip), vehicle: water): 8 % of control and 18 % of control | T/C (dose: 19.2 mg/kg/injection, schedule: Q01DX009 (ip), vehicle: water): 2 % of control and 12 % of control | T/C (dose: 32.0 mg/kg/injection, schedule: Q01DX009 (ip), vehicle: water): 6 % of control and 9 % of control

Cc1c2oc3c(C)ccc(C(=O)N[C@@H]4C(=O)N[C@H](C(C)C)C(=O)N5CCC[C@H]5C(=O)N(C)CC(=O)N(C)[C@@H](C(C)C)C(=O)O[C@H]4C)c3nc-2c(C(=O)N[C@@H]2C(=O)N[C@H](C(C)C)C(=O)N3CCC[C@H]3C(=O)N(C)CC(=O)N(C)[C@@H](C(C)C)C(=O)O[C@H]2C)c(N)c1=O (I: [aThr][dV]P[Sar][NMeV] / II: [aThr][dV]P[Sar][NMeV]; ester I:1-I:C, II:1-II:C; linker I:N-II:N via Actinocin(9to1))
T/C (dose: 25.0 micrograms/kg/injection, schedule: Q01DX010 (sc), vehicle: saline): 100 % of control | T/C (dose: 50.0 micrograms/kg/injection, schedule: Q01DX010 (sc), vehicle: saline): 49 % of control | T/C (dose: 100.0 micrograms/kg/injection, schedule: Q01DX010 (sc), vehicle: saline): 12 % of control | T/C (dose: 200.0 micrograms/kg/injection, schedule: Q01DX010 (sc), vehicle: saline): 1 % of control

NC(=O)c1c[se]c(C2OC(CO)C(O)C2O)n1 (centres undefined)
T/C (dose: 75.0 mg/kg/injection, schedule: Q04DX003 (ip), vehicle: water): 88 % of control | T/C (dose: 150.0 mg/kg/injection, schedule: Q04DX003 (ip), vehicle: water): 61 % of control | T/C (dose: 300.0 mg/kg/injection, schedule: Q04DX003 (ip), vehicle: water): 50 % of control | T/C (dose: 600.0 mg/kg/injection, schedule: Q04DX003 (ip), vehicle: water): 43 % of control

COc1cccc2c1C(=O)C1=C(C2=O)c2c(O)cc(CO)cc2C(O)C1O (centres undefined)
T/C (dose: 6.25 mg/kg/injection, schedule: Q04DX003 (ip), vehicle: other): 84 % of control | T/C (dose: 12.5 mg/kg/injection, schedule: Q04DX003 (ip), vehicle: other): 102 % of control | T/C (dose: 25.0 mg/kg/injection, schedule: Q04DX003 (ip), vehicle: other): 96 % of control

CN(C)c1nc(N(C)C)[n+]([O-])c(N(C)C)n1
T/C (dose: 200.0 mg/kg/injection, schedule: Q01DX010 (ip), vehicle: water): 83 % of control | T/C (dose: 400.0 mg/kg/injection, schedule: Q01DX010 (ip), vehicle: water): 107 % of control

O=c1[nH]c(=O)n(C2CC(O)C(CO)O2)cc1F (centres undefined)
T/C [1]: 47 % of control and 68 % of control | T/C [2]: 15 % of control and 18 % of control

C/C(=N\NC(=S)N1CC2CCC(CC2)C1)c1nccs1
T/C (dose: 75.0 mg/kg/injection, schedule: Q04DX003 (ip), vehicle: saline with Tween-80): 78 % of control

CCn1c(-c2ccc(OC(C)=O)cc2)c(C)c2cc(OC(C)=O)ccc21
T/C [3]: 68 % of control | T/C (dose: 300.0 mg/kg/injection, schedule: Q04DX003 (ip), vehicle: Klucel (hydroxypropylcellulose) (HPC)): 61 % of control | T/C (dose: 600.0 mg/kg/injection, schedule: Q04DX003 (ip), vehicle: Klucel (hydroxypropylcellulose) (HPC)): 63 % of control | T/C (dose: 1200.0 mg/kg/injection, schedule: Q04DX003 (ip), vehicle: Klucel (hydroxypropylcellulose) (HPC)): 47 % of control

Cn1cc(NC(=O)c2cc(NC(=O)c3cc(NC=O)cn3C)cn2C)cc1C(=O)NCCC(=N)N
T/C (dose: 50.0 mg/kg/injection, schedule: Q04DX003 (ip), vehicle: water): 82 % of control | T/C (dose: 100.0 mg/kg/injection, schedule: Q04DX003 (ip), vehicle: water): 83 % of control | T/C (dose: 200.0 mg/kg/injection, schedule: Q04DX003 (ip), vehicle: water): 51 % of control

CC1CN1P1(N2CC2C)=NP(N2CC2C)(N2CC2C)=NP(N2CC2C)(N2CC2C)=N1 (centres undefined)
T/C (dose: 75.0 mg/kg/injection, schedule: Q04DX003 (sc), vehicle: saline): 51 % of control | T/C (dose: 150.0 mg/kg/injection, schedule: Q04DX003 (sc), vehicle: saline): 3 % of control

Nc1ccc(S(=O)(=O)Nc2cnc3c(Cl)cccc3n2)cc1
T/C (dose: 150.0 mg/kg/injection, schedule: Q04DX003 (ip), vehicle: DMSO): 103 % of control | T/C (dose: 300.0 mg/kg/injection, schedule: Q04DX003 (ip), vehicle: DMSO): 49 % of control | T/C (dose: 600.0 mg/kg/injection, schedule: Q04DX003 (ip), vehicle: DMSO): 75 % of control

C[n+]1ccc2cc(N)c3c4ccccc4sc3c2c1
T/C (dose: 12.5 mg/kg/injection, schedule: Q04DX003 (sc), vehicle: saline with Tween-80): 96 % of control | T/C (dose: 25.0 mg/kg/injection, schedule: Q04DX003 (sc), vehicle: saline with Tween-80): 100 % of control
